Measured values published in PMC8234031, “Modular Assembly of Phosphite Dehydrogenase and Phenylacetone Monooxygenase for Tuning Cofactor Regeneration” (Biomolecules, 2021).

Biological target: T1, PAMOI (RIDD-tagged PAMO) (Thermobifida fusca, UniProt Q47PU3)
T1 construct: N-terminal 6xHis, C-terminal (GGGGS)x3 linker and 44-residue RIDD tag, kept; E. coli; 70 kDa; homodimer through the RIDD tag
Assay: UV-Vis absorbance ratio A280/A441 of the purified protein
Format: binding
Settings: co-purified flavin; ratio given for the tagged PAMO fusions together

T1 sequence (Q47PU3 whole entry): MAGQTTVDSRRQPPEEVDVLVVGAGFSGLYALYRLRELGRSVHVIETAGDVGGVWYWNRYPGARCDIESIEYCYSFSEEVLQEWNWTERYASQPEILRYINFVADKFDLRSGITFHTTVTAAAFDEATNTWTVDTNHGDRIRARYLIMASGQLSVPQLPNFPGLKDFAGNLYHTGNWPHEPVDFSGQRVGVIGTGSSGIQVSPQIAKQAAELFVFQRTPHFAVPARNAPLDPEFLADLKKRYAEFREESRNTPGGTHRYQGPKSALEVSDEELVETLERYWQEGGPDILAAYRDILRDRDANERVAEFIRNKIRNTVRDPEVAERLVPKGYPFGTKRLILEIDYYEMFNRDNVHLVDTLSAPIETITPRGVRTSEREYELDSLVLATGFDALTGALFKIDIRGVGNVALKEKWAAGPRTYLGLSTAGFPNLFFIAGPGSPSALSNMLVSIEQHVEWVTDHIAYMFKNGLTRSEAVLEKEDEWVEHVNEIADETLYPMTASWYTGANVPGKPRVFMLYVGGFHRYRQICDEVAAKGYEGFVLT

With `Cc1cc2nc3c(=O)[nH]c(=O)nc-3n(C[C@H](O)[C@H](O)[C@H](O)COP(=O)(O)OP(=O)(O)OC[C@H]3O[C@@H](n4cnc5c(N)ncnc54)[C@H](O)[C@@H]3O)c2cc1C` [FAD] the “UV-Vis absorbance ratio A280/A441 of the purified protein” value was “The tagged variants of PAMO were purified as yellow proteins”.
